These results are taken from article PMC8467962, “Design and Synthesis of Water-Soluble and Potent MMP-13 Inhibitors with Activity in Human Osteosarcoma Cells” (International Journal of Molecular Sciences, 2021).

≈ marks a conversion by molar mass, not a printed value. Read-outs that look alike come from different tables or passages of the source. Where only a bound is given, the exact number is not on record here.

Data set [1] deals with T1, MMP-7 (Homo sapiens, UniProt P09237).
T1 construct: the catalytic domains of the corresponding MMP were incubated in triplicate; purchased Enzo Life Science International, Inc
T1 sequence (P09237 95-267): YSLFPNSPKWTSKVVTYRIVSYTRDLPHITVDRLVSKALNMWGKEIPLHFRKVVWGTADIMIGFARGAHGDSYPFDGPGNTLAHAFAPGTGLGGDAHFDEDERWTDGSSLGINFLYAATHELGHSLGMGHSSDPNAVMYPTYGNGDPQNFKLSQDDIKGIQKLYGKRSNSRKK
On the set-up: method as in PMID 30629065. The note with it: panel of MMPs; cited from earlier work.

Data set [2] can be described thus: Thermodynamic solubility (shake flask method). The class given is physicochemical. The settings on record: phosphate buffer, aqueous buffer, thermodynamic from solid; PBS pH 7.4, shake flask, room temperature; read-out: Experimental Water Solubility LogS (converted). How it is done:
The samples were sonicated for 10 min and shaken overnight at 800 rpm (FB15013 TopMix, Fischer Scientific, Waltham, MA, USA) at room temperature. A first phase separation of supernatant and undissolved solid was performed by centrifugation at 5000 rpm for 20 min (Biofuge primo R). The supernatant was then transferred into Eppendorf tubes for a second centrifugation. An adequate dilution was made using the particle-free supernatant and the concentration quantified by LC-HRMS using a 4-point calibration curve (Agilent 1260 Infinity II).
PART A. Calibration curves of compounds for solubility
9e, 10a-e), 4-points calibration curves were made for each compound. Calibrations curves were obtained using four different concentrations of the corresponding compound (0.1 mg/mL, 0.01 mg/mL, 0.001 mg/mL and 0.0001 mg/mL). All samples were prepared in DMSO and measured in a LC-HRMS (Agilent 1260 Infinity II).
Figure S1. Calibration curves of all active compounds (solubility studies) (1, 2, 9a, 9e, 10a-e) […]

Data set [3] deals with T2, MMP-13 (Homo sapiens, UniProt P45452).
T2 construct: the catalytic domains of the corresponding MMP were incubated in triplicate; purchased Enzo Life Science International, Inc
Set-up: method as in PMID 30629065. The settings on record: cited from earlier work.

Data set [4] has as its target T3, MMP-10 (Homo sapiens, UniProt P09238).
T3 construct: the catalytic domains of the corresponding MMP were incubated in triplicate; purchased Enzo Life Science International, Inc
Set-up: method as in PMID 30629065. The note with it: panel of MMPs; cited from earlier work.

For data set [5], the target named is T4, MMP-14 (Homo sapiens, UniProt P50281).
T4 construct: the catalytic domains of the corresponding MMP were incubated in triplicate; purchased Enzo Life Science International, Inc
Set-up: method as in PMID 30629065. The settings on record: panel of MMPs; cited from earlier work.

The target of data set [6] is T5, MMP-8 (Homo sapiens, UniProt P22894).
T5 construct: the catalytic domains of the corresponding MMP were incubated in triplicate; purchased Enzo Life Science International, Inc
T5 sequence (P22894 100-262 limits assumed): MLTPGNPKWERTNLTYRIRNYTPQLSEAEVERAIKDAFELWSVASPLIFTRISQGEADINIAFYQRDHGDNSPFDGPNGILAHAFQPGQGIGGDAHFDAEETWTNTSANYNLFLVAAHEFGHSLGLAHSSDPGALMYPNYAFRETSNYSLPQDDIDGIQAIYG
On the set-up: method as in PMID 30629065. The note with it: panel of MMPs; cited from earlier work.

The target of data set [7] is T6, MMP-2 (Homo sapiens, UniProt P08253).
T6 construct: the catalytic domains of the corresponding MMP were incubated in triplicate; purchased Enzo Life Science International, Inc
T6 sequence (P08253 110-446 limits assumed): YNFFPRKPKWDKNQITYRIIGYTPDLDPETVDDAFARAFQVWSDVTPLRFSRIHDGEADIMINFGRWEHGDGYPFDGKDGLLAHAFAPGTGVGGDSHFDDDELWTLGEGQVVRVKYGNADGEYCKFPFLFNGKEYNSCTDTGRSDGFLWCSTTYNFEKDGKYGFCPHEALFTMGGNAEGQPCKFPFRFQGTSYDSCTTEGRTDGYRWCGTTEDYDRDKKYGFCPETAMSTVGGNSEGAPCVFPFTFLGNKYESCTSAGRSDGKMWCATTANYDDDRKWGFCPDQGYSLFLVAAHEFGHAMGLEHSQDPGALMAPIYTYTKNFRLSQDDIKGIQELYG
Set-up: method as in PMID 30629065. The note with it: cited from earlier work.

Data set [8] concerns the target T7, MMP-12 (Homo sapiens, UniProt P39900).
T7 construct: the catalytic domains of the corresponding MMP were incubated in triplicate; purchased Enzo Life Science International, Inc
Set-up: method as in PMID 30629065. The note with it: panel of MMPs; cited from earlier work.

Data set [9] concerns the target T8, MMP-1 (Homo sapiens, UniProt P03956).
T8 construct: the catalytic domains of the corresponding MMP were incubated in triplicate; purchased Enzo Life Science International, Inc
T8 sequence (P03956 100-269 limits assumed): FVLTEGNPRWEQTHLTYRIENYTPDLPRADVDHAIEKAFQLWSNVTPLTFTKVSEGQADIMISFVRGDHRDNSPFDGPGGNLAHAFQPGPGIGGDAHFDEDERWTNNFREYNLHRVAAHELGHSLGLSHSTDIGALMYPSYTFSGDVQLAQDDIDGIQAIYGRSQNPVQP
Set-up: method as in PMID 30629065. The note with it: panel of MMPs; cited from earlier work.

Data set [10] concerns the target T9, MMP-3 (Homo sapiens, UniProt P08254).
T9 construct: the catalytic domains of the corresponding MMP were incubated in triplicate; purchased Enzo Life Science International, Inc
On the set-up: method as in PMID 30629065. The note with it: panel of MMPs; cited from earlier work.

Data set [11] addresses T10, MMP-9 (Homo sapiens, UniProt P14780).
T10 construct: the catalytic domains of the corresponding MMP were incubated in triplicate; purchased Enzo Life Science International, Inc
Set-up: method as in PMID 30629065. The settings on record: panel of MMPs; cited from earlier work.

For data set [12], the target named is T6, MMP-2. Description: MMP inhibition assay (MMP Inhibitor Profiling Kit, thiopeptide substrate), MMP-2. The class given is biochemical. The note with it: catalytic domain, 37 °C, pH 7.5. The procedure:
(§1) MMP activity measurements were performed using an MMP Inhibitor Profiling Kit purchased from Enzo Life Science International, Inc. (Farmingdale, NY, USA), and following the manufacturer’s protocol with slight modifications. Proteolytic activity was measured using a thiopeptide substrate (Ac-PLG-[2-mercapto-4-methylpentanoyl]-LG-OC2H5) where the MMP cleavage site peptide bond has been replaced by a thioester bond. Hydrolysis of this bond by MMPs produces a sulfhydryl group that reacts with DTNB to form 2-nitro-5-thiobenzoic acid, which was detected by its absorbance at 414 nm (microplate photometer 90 Thermo Scientific Multiscan FC).
(§2) Enzyme reactions were carried out at 37 °C in a 100 μL final volume of solutions, where the catalytic domains of the corresponding MMP were incubated in triplicate with at least seven concentrations of inhibitors. The assay buffer contained the following components: 50 mM HEPES, 10 mM CaCl2 95, 0.05% Brij-35, and 1 mM DTNB at pH 7.5. After addition of the substrate, the increase of absorbance was recorded in 1 min time intervals for 30 min. Data were plotted as OD versus time for each sample to obtain the reaction velocity (V) in OD per min. The percentage of residual activity for each compound was calculated using the following formula: % of remaining activity = (V in the presence of inhibitor/Vcontrol) × 100. An inhibitor, NNGH, was included as a prototypic control inhibitor. IC50 calculations in MMP-13 and MMP-2 for active compounds are shown in Supplementary Materials (Figure S9)
The concentration of the compound that provided 50% inhibition of enzymatic activity (IC50) was determined by using semi-logarithmic dose–response plots (Graph Pad Prism 5.0 for Windows, Graph Pad Software Inc., San Diego, CA, USA, 2007).

Data set [13] deals with T1, MMP-7. Briefly: MMP inhibition assay (MMP Inhibitor Profiling Kit, thiopeptide substrate), MMP-7. The class given is biochemical. The settings on record: panel of MMPs. The procedure:
as §1
as §2, with “An inhibitor, NNGH, was included as a prototypic control inhibitor. IC50 calculations in MMP-13 and MMP-2 for active compounds are shown in Supplementary Materials (Figure S9)” left out

Data set [14] addresses T4, MMP-14. Description: MMP inhibition assay (MMP Inhibitor Profiling Kit, thiopeptide substrate), MMP-14. The data set is classed as biochemical. The note with it: panel of MMPs. The procedure:
as §1
as §2, with “An inhibitor, NNGH, was included as a prototypic control inhibitor. IC50 calculations in MMP-13 and MMP-2 for active compounds are shown in Supplementary Materials (Figure S9)” left out

The target of data set [15] is T5, MMP-8. Description: MMP inhibition assay (MMP Inhibitor Profiling Kit, thiopeptide substrate), MMP-8. The data set is classed as biochemical. The settings on record: panel of MMPs. How it is done: as §1
as §2, with “An inhibitor, NNGH, was included as a prototypic control inhibitor. IC50 calculations in MMP-13 and MMP-2 for active compounds are shown in Supplementary Materials (Figure S9)” left out

Data set [16] concerns the target T3, MMP-10. Briefly: MMP inhibition assay (MMP Inhibitor Profiling Kit, thiopeptide substrate), MMP-10. The class given is biochemical. The settings on record: panel of MMPs. How it is done:
as §1
as §2, with “An inhibitor, NNGH, was included as a prototypic control inhibitor. IC50 calculations in MMP-13 and MMP-2 for active compounds are shown in Supplementary Materials (Figure S9)” left out

In data set [17] the target is T9, MMP-3. Description: MMP inhibition assay (MMP Inhibitor Profiling Kit, thiopeptide substrate), MMP-3. The class given is biochemical. The note with it: panel of MMPs. How it is done: as §1
as §2, with “An inhibitor, NNGH, was included as a prototypic control inhibitor. IC50 calculations in MMP-13 and MMP-2 for active compounds are shown in Supplementary Materials (Figure S9)” left out

The target in data set [18] is T10, MMP-9. Description: MMP inhibition assay (MMP Inhibitor Profiling Kit, thiopeptide substrate), MMP-9. The class given is biochemical. The settings on record: panel of MMPs. The procedure:
as §1
as §2, with “An inhibitor, NNGH, was included as a prototypic control inhibitor. IC50 calculations in MMP-13 and MMP-2 for active compounds are shown in Supplementary Materials (Figure S9)” left out

For data set [19], the target named is T8, MMP-1. Description: MMP inhibition assay (MMP Inhibitor Profiling Kit, thiopeptide substrate), MMP-1. The class given is biochemical. The settings on record: panel of MMPs. How it is done:
as §1
as §2, with “An inhibitor, NNGH, was included as a prototypic control inhibitor. IC50 calculations in MMP-13 and MMP-2 for active compounds are shown in Supplementary Materials (Figure S9)” left out

Data set [20] deals with T7, MMP-12. Briefly: MMP inhibition assay (MMP Inhibitor Profiling Kit, thiopeptide substrate), MMP-12. The class given is biochemical. The settings on record: panel of MMPs. How it is done:
as §1
as §2, with “An inhibitor, NNGH, was included as a prototypic control inhibitor. IC50 calculations in MMP-13 and MMP-2 for active compounds are shown in Supplementary Materials (Figure S9)” left out

T9 sequence (P08254 100-272 limits assumed): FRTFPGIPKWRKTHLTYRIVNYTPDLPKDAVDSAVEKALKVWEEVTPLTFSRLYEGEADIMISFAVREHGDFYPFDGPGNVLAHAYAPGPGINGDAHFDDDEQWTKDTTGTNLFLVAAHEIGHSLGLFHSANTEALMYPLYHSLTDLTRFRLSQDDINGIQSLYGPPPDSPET
T3 sequence (P09238 99-263 limits assumed): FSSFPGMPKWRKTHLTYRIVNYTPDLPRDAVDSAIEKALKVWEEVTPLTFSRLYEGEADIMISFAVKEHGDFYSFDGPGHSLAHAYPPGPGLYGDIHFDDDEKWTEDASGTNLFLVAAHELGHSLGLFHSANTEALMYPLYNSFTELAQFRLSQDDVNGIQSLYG
T10 sequence (P14780 107-444 limits assumed): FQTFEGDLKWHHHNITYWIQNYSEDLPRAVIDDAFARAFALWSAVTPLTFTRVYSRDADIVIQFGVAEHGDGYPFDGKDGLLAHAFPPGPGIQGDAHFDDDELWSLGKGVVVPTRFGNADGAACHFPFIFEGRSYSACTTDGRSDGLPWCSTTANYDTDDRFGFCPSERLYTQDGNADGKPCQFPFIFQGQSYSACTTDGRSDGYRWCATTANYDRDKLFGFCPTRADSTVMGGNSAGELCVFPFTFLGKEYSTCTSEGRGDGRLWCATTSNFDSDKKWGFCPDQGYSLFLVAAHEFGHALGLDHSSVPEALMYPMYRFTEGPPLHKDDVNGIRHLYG
T7 sequence (P39900 106-263 limits assumed): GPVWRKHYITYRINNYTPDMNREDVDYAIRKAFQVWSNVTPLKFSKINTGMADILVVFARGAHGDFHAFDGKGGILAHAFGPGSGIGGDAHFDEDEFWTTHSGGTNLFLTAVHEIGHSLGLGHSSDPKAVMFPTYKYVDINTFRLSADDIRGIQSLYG

The IC50 is the point on the concentration scale where inhibition reaches its midpoint. As a reminder, the solubility is the concentration that dissolves in the medium under given conditions. As to `O=C(NO)[C@@H](Cc1ccccc1)NS(=O)(=O)c1ccc(-n2cc(CCn3nc4c(Br)c(Br)c(Br)c(Br)c4n3)nn2)cc1` [Compound 1], the IC50 was more than 1000 nM in [1]; 3.7 nM in data set [3] (panel of MMPs, read-out: IC50 MMP-13); 3.7 ± 1.85 nM in data set [3] (previous work, read-out: MMP-13 IC50); 434 nM in data set [4]; more than 1000 nM in data set [5]; more than 500 nM in data set [6]. Also, the IC50 in data set [7] (panel of MMPs, read-out: IC50 MMP-2) was 70 nM; in [7] (previous work, read-out: MMP-2 IC50), 70 nM; in data set [8] it was 17.8 nM; in [9], more than 1000 nM; in data set [10], 500 nM; in [11], more than 500 nM. Further, the solubility in data set [2] was 2.88 µM (≈ 2.45 µg/mL).

In the case of `O=C(NO)[C@@H](Cc1ccccc1)NS(=O)(=O)c1ccc(-n2cc(CCn3nc4ccccc4n3)nn2)cc1` [Compound 9a], the IC50 in data set [12] was 3.42 ± 1.15 nM; in data set [13], 47 ± 21 nM; in data set [14], more than 1000 nM; in data set [15], 100 ± 19 nM; in [16], 280 ± 22 nM; in [17], 31 ± 8 nM. For the same compound, the IC50 in [18] was 500 ± 74 nM; in data set [19] it was more than 1000 nM; in [20], 3.7 ± 2 nM. For the same compound, in data set [2], the solubility was 9.77 µM (≈ 5.2 µg/mL).
